{"source": "paper PMC4685510", "about": "“A Cell Biologist’s Field Guide to Aurora Kinase Inhibitors” (Frontiers in Oncology, 2015)", "key": {"[1]": {"molecular_target": "T1, 363 human kinases (including Aurora A/B/C) (Homo sapiens, UniProt Q9UQB9)", "T1 sequence (Q9UQB9 1-309)": "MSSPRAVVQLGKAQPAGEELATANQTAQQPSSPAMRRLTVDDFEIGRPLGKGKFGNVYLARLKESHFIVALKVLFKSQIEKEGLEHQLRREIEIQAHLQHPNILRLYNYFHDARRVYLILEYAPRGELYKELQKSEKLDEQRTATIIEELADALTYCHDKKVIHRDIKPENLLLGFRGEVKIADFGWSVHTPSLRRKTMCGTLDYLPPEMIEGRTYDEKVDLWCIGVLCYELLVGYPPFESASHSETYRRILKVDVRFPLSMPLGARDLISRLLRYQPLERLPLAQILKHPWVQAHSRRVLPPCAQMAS", "assay": "biochemical", "assay_type": "biochemical", "settings": "Aurora C, [ATP] 30 µM", "text": "(§1) However, the Aurora A/B selectivity ratios derived from our in vitro and in vivo data can be compared to prioritize inhibitors."}, "HeLa cells [2]": {"system": "HeLa cells", "assay": "Cytokinesis assay (live imaging, YFP-α-tubulin; H2B-RFP), HeLa", "assay_type": "cell-based, human", "settings": "Homo sapiens; HeLa; cytokinesis failure; read-out: Cytokinesis IC50"}, "RPE1 cells [3]": {"system": "RPE1 cells", "assay": "Cytokinesis assay (live imaging, YFP-α-tubulin; H2B-RFP), RPE1", "assay_type": "cell-based", "settings": "Homo sapiens, RPE-1; RPE1; cytokinesis failure; read-out: Cytokinesis IC50"}, "U2OS cells [4]": {"system": "U2OS cells", "assay": "Cytokinesis assay (live imaging, YFP-α-tubulin; H2B-RFP), U2OS", "assay_type": "cell-based", "settings": "Homo sapiens, cytokinesis failure, read-out: Cytokinesis IC50"}, "Aurora A-TPX2": {"molecular_target": "Aurora A-TPX2", "settings": "ref 61; read-out: Aurora A-TPX2 Ki (Published); cited from earlier work"}, "[5]": {"molecular_target": "363 human kinases (including Aurora A/B/C) (Homo sapiens, UniProt P00519)", "sequence (P00519 whole entry)": "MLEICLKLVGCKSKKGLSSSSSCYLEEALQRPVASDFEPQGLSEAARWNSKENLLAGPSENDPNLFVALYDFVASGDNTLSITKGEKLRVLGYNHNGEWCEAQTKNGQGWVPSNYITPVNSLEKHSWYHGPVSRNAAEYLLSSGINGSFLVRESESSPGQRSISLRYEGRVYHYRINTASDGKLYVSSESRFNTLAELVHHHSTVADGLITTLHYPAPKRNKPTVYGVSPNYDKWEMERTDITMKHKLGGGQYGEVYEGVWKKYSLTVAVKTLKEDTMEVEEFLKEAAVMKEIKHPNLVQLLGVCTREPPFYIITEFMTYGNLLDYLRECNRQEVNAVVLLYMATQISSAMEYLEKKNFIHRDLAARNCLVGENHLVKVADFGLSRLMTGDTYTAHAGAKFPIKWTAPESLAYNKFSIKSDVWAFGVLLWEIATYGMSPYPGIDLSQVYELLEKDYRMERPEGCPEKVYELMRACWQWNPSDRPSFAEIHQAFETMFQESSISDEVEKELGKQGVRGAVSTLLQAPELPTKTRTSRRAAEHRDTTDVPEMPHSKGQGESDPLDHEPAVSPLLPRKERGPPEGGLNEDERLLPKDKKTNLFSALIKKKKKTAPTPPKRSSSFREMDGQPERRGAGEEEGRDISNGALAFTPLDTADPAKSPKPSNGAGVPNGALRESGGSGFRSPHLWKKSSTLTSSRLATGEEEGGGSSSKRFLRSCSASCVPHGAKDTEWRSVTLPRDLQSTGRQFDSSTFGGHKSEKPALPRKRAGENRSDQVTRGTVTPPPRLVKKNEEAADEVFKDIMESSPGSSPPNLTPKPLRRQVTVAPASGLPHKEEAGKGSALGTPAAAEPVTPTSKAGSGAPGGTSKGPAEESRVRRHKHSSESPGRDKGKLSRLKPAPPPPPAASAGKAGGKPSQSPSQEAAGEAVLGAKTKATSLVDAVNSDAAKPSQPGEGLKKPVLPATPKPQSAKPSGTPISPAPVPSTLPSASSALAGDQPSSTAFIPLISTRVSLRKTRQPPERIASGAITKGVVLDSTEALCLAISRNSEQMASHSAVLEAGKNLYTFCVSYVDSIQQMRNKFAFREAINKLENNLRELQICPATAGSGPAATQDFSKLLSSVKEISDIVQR", "assay": "biochemical", "assay_type": "biochemical", "settings": "ABL1, [ATP] 40 µM", "text": "as §1"}, "[6]": {"molecular_target": "363 human kinases (including Aurora A/B/C) (Homo sapiens, UniProt P48730)", "sequence (P48730 whole entry)": "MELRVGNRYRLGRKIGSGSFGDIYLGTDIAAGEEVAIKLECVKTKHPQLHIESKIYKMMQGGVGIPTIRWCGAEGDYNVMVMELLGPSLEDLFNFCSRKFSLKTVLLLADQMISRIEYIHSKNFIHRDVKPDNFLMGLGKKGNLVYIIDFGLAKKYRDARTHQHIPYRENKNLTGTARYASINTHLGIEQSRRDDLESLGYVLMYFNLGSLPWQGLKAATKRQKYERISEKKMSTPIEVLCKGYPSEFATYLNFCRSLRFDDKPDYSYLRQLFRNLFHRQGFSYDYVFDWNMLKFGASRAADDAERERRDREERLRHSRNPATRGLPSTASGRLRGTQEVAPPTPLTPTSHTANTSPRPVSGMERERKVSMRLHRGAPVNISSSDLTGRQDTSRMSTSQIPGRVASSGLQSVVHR", "assay": "biochemical", "assay_type": "biochemical", "settings": "CK1d, [ATP] 20 µM", "text": "as §1"}, "[7]": {"molecular_target": "T2, 363 human kinases (including Aurora A/B/C) (Homo sapiens, UniProt Q15831)", "T2 sequence (Q15831 1-433)": "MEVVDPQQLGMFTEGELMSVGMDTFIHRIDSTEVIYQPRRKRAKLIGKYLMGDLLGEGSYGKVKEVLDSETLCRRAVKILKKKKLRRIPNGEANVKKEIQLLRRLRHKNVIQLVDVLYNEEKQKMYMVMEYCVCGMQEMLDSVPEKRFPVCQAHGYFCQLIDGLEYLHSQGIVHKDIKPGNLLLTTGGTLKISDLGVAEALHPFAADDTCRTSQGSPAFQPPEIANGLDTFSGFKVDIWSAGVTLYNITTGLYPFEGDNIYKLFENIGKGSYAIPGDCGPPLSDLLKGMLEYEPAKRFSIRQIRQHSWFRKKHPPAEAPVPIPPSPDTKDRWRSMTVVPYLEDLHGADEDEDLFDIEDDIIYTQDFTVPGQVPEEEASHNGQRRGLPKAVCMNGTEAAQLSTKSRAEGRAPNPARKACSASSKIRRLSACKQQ", "assay": "biochemical", "assay_type": "biochemical", "settings": "LKB1", "text": "as §1"}, "HeLa cells [8]": {"system": "HeLa cells", "assay": "G2 duration live imaging assay (GFP-PCNA; H2B-RFP), HeLa", "assay_type": "cell-based, human"}, "RPE1 cells [9]": {"system": "RPE1 cells", "assay": "G2 duration live imaging assay (GFP-PCNA; H2B-RFP), RPE1", "assay_type": "cell-based", "settings": "Homo sapiens, RPE-1, read-out: G2/M (G2 duration) IC50"}, "U2OS cells [10]": {"system": "U2OS cells", "assay": "G2 duration live imaging assay (GFP-PCNA; H2B-RFP), U2OS", "assay_type": "cell-based", "settings": "Homo sapiens, read-out: G2/M (G2 duration) IC50"}, "Aurora B/INCENP^783–918": {"molecular_target": "T3, Aurora B/INCENP^783–918 (Homo sapiens, UniProt Q96GD4)", "T3 construct": "purchased SignalChem", "T3 sequence (Q96GD4 whole entry)": "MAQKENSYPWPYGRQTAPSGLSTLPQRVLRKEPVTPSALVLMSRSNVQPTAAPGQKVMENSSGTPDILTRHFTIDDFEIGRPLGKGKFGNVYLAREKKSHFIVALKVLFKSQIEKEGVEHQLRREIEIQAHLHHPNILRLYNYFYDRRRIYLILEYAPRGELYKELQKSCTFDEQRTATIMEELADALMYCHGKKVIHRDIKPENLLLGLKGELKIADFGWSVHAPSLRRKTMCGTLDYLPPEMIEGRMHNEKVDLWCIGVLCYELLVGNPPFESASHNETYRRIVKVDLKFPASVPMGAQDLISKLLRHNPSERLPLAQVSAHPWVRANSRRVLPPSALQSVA", "T3 sequence (Q9NQS7 783-918 partner limits assumed)": "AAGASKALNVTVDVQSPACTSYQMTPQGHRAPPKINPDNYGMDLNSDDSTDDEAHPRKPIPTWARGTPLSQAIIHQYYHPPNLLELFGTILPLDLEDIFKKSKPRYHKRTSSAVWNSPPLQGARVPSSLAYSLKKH", "assay": "Aurora B/INCENP^783–918 kinase assay (ADP-Glo)", "assay_type": "biochemical"}, "[11]": {"molecular_target": "363 human kinases (including Aurora A/B/C) (Homo sapiens, UniProt Q16584)", "sequence (Q16584 whole entry)": "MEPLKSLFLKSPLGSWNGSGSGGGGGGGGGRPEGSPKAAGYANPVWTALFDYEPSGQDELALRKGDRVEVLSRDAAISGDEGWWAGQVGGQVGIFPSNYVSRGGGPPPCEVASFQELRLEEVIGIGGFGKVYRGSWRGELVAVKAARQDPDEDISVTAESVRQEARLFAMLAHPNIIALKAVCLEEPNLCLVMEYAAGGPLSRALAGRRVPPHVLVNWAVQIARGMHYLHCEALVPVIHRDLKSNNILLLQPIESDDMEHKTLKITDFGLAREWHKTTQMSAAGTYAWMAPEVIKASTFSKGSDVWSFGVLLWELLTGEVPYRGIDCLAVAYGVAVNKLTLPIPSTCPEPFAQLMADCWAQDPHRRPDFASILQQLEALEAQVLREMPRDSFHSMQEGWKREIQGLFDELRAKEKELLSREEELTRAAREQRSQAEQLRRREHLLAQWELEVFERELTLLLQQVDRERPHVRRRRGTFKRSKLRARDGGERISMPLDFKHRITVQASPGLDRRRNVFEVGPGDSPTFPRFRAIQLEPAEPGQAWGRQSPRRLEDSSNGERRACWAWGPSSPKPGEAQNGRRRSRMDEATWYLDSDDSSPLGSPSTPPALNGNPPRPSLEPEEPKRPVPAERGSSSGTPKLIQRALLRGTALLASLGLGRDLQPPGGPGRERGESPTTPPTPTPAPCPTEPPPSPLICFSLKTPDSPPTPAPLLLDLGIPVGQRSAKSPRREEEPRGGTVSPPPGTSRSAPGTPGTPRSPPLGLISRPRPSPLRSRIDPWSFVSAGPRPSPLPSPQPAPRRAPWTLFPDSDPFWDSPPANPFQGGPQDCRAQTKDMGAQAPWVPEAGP", "assay": "biochemical", "assay_type": "biochemical", "settings": "MLK3/MAP3K11, 500 nM", "text": "as §1"}, "Aurora A": {"system": "Aurora A", "settings": "ref 57; read-out: Aurora A IC50 (Published); cited from earlier work"}, "Aurora A/TPX2^1–43": {"molecular_target": "T4, Aurora A/TPX2^1–43 (Homo sapiens, UniProt O14965)", "T4 sequence (O14965 1-403)": "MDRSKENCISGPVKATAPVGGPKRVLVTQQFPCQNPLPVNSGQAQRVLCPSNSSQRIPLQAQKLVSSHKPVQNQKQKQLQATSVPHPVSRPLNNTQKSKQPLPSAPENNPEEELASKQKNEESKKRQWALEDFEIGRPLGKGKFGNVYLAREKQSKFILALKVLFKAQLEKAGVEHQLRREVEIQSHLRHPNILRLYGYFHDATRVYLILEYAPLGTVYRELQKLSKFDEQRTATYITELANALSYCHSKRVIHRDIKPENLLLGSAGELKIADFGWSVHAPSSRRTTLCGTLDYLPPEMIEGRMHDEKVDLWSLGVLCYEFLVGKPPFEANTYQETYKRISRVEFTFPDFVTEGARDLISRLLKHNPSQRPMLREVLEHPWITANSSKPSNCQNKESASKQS", "T4 sequence (Q9ULW0 1-43 partner limits assumed)": "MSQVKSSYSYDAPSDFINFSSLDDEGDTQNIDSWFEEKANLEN", "assay": "Aurora A/TPX2^1–43 kinase assay (ADP-Glo)"}, "[12]": {"system": "HeLa, RPE1, and U2OS cells", "assay": "Cellular proliferation analysis (ATPLite, 24 h)", "settings": "HeLa, RPE1, U2OS; 24 h (Figure 4D, Figure S2B)"}, "[13]": {"molecular_target": "T5, full-length human Aurora A (Homo sapiens, UniProt O14965)", "T5 sequence (O14965 1-403)": "T4 sequence (O14965 1-403)", "assay": "Aurora A kinase assay (ADP-Glo, Kemptide substrate)"}, "[14]": {"settings": "100 nM, read-out: % Enzyme Activity (relative to DMSO controls)"}, "[15]": {"settings": "500 nM, read-out: % Enzyme Activity (relative to DMSO controls)"}, "[16]": {"settings": "Homo sapiens, read-out: G2/M (G2 duration) IC50, HeLa"}, "[17]": {"settings": "read-out: G2/M (G2 duration) IC50"}, "[18]": {"settings": "fold difference in potency calculated by dividing Ki values"}}}
{"compound": "CCn1cc(-c2ccnc3[nH]c(-c4cccc(CN(C)C)c4)cc23)c(-c2ccc(NC(=O)N(C)C)cc2)n1", "note": "[GSK1070916]", "values": [{"measurement": "remaining activity at 0.1 µM", "setting": "[1]; [14]", "result": 39.7, "unit": "%"}, {"measurement": "IC50", "setting": "HeLa cells [2]", "result": 6, "unit": "nM"}, {"measurement": "IC50", "setting": "RPE1 cells [3]", "result": 21, "unit": "nM"}, {"measurement": "IC50", "setting": "U2OS cells [4]", "result": 6, "unit": "nM"}, {"measurement": "Ki", "setting": "Aurora A-TPX2", "result": 492, "unit": "nM"}]}
{"compound": "O=C(O)[C@]1(Cc2cccc(Nc3nccs3)n2)CC[C@@H](Oc2cccc(Cl)c2F)CC1", "note": "[MK-5108]", "values": [{"measurement": "remaining activity at 0.1 µM", "setting": "[5]; [14]", "result": 15.6, "unit": "%"}, {"measurement": "remaining activity at 0.5 µM", "setting": "[5]; [15]", "result": 1.92, "unit": "%"}, {"measurement": "remaining activity at 0.1 µM", "setting": "[6]; [14]", "result": 100, "unit": "%"}, {"measurement": "remaining activity at 0.5 µM", "setting": "[6]; [15]", "result": 86.8, "unit": "%"}, {"measurement": "remaining activity at 0.1 µM", "setting": "[7]; [14]", "result": 76.6, "unit": "%"}, {"measurement": "remaining activity at 0.5 µM", "setting": "[7]; [15]", "result": 47.4, "unit": "%"}, {"measurement": "IC50", "setting": "HeLa cells [8]; [16]", "result": "600 to 800", "unit": "nM"}, {"measurement": "IC50", "setting": "HeLa cells [8]; [17]", "result": 816, "unit": "nM"}, {"measurement": "IC50", "setting": "RPE1 cells [9]", "result": 877, "unit": "nM"}, {"measurement": "IC50", "setting": "U2OS cells [10]", "result": 995, "unit": "nM"}]}
{"compound": "O=C(c1cccc(Cl)c1F)N1CCN(Cc2cccc(Nc3nccs3)n2)CC1", "note": "[MK-8745]", "values": [{"measurement": "Ki", "setting": "Aurora B/INCENP^783–918; Aurora B INCENP^783-918 Ki (example dataset, Figure 2D), calculated from the example IC50", "result": 58.8, "unit": "nM"}, {"measurement": "Ki", "setting": "Aurora B/INCENP^783–918; Aurora B-INCENP^783–918 Ki Mean ± SD, [ATP] = Km(ATP) (10 μM)", "result": "66.8 ± 19.6", "unit": "nM"}, {"measurement": "IC50", "setting": "Aurora B/INCENP^783–918; [ATP] = Km(ATP), example dataset", "result": 118, "unit": "nM"}, {"measurement": "% Enzyme Activity (relative to DMSO controls)", "setting": "[5]; 500 nM", "result": 76.80, "unit": "%"}, {"measurement": "remaining activity at 0.5 µM", "setting": "[5]; [15]", "result": 77.7, "unit": "%"}, {"measurement": "% Enzyme Activity (relative to DMSO controls)", "setting": "[6]; 500 nM", "result": 85.06, "unit": "%"}, {"measurement": "remaining activity at 0.5 µM", "setting": "[6]; [15]", "result": 85.5, "unit": "%"}, {"measurement": "% Enzyme Activity (relative to DMSO controls)", "setting": "[7]; 500 nM", "result": 25.85, "unit": "%"}, {"measurement": "remaining activity at 0.5 µM", "setting": "[7]; [15]", "result": 26.1, "unit": "%"}, {"measurement": "% Enzyme Activity (relative to DMSO controls)", "setting": "[11]", "result": 92.79, "unit": "%"}, {"measurement": "remaining activity at 0.5 µM", "setting": "[11]; read-out: % Enzyme Activity (relative to DMSO controls)", "result": 94.8, "unit": "%"}, {"measurement": "% Enzyme Activity (relative to DMSO controls)", "setting": "[1]; 500 nM", "result": 46.69, "unit": "%"}, {"measurement": "remaining activity at 0.5 µM", "setting": "[1]; [15]", "result": 47.4, "unit": "%"}, {"measurement": "IC50", "setting": "HeLa cells [8]; [16]", "result": "600 to 800", "unit": "nM"}, {"measurement": "IC50", "setting": "HeLa cells [8]; [17]", "result": 596, "unit": "nM"}, {"measurement": "IC50", "setting": "RPE1 cells [9]", "result": 755, "unit": "nM"}, {"measurement": "IC50", "setting": "U2OS cells [10]", "result": 437, "unit": "nM"}, {"measurement": "IC50", "setting": "Aurora A", "result": 0.6, "unit": "nM"}, {"measurement": "IC50", "setting": "Aurora A/TPX2^1–43", "result": 0.83, "unit": "nM"}, {"measurement": "Ki", "setting": "Aurora A/TPX2^1–43; Aurora A TPX2^1-43 Ki (example dataset, Figure 2D), calculated from the example IC50", "result": 0.36, "unit": "nM"}, {"measurement": "Ki", "setting": "Aurora A/TPX2^1–43; Aurora A-TPX2^1–43 Ki Mean ± SD, [ATP] = Km(ATP) (3 μM), 40 nM TPX2^1–43", "result": "0.41 ± 0.06", "unit": "nM"}, {"measurement": "Selectivity ratio Aur A-TPX2^1–43 versus Aur B-INCENP^783–918", "setting": "Aurora A/TPX2^1–43; [18]", "result": 162, "unit": "fold"}, {"measurement": "Toxicity / cytotoxicity (cellular proliferation)", "setting": "[12]", "result": "not cytotoxic"}, {"measurement": "IC50", "setting": "[13]", "result": 0.23, "unit": "nM"}, {"measurement": "Ki", "setting": "[13]; Aurora A Ki Mean ± SD, [ATP] = Km(ATP) (35 μM), Ki calculated from IC50 with tight-binding equation", "result": "0.06 ± 0.004", "unit": "nM"}, {"measurement": "Selectivity ratio Aur A versus Aur A-TPX2^1–43", "setting": "[13]; [18]", "result": 6.3, "unit": "fold"}, {"measurement": "Selectivity ratio Aur A versus Aur B-INCENP^783–918", "setting": "[13]; [18]", "result": 1030, "unit": "fold"}]}
